Laboratory results: patent US7250267B2, “Cross-reactive sensors” (priority 2001, dated 2007)

Experiments:
Format in all cases: biochemical
[1] = target: T1, Acetylcholine Esterase from Electrophorus electricus (Electrophorus electricus, UniProt O42275); assay: Esterase hydrolysis microtiter plate assay with fluorescein pH indicator, acetylcholine esterase; details: for hydrolysis reaction slope after three months / initial slope range and standard deviation of hydrolysis reaction: with acetylcholine esterase; for initial slope range and standard deviation of hydrolysis reaction: measured initially
T1 construct: purchased Sigma and Fluka
T1 sequence (O42275 24-633): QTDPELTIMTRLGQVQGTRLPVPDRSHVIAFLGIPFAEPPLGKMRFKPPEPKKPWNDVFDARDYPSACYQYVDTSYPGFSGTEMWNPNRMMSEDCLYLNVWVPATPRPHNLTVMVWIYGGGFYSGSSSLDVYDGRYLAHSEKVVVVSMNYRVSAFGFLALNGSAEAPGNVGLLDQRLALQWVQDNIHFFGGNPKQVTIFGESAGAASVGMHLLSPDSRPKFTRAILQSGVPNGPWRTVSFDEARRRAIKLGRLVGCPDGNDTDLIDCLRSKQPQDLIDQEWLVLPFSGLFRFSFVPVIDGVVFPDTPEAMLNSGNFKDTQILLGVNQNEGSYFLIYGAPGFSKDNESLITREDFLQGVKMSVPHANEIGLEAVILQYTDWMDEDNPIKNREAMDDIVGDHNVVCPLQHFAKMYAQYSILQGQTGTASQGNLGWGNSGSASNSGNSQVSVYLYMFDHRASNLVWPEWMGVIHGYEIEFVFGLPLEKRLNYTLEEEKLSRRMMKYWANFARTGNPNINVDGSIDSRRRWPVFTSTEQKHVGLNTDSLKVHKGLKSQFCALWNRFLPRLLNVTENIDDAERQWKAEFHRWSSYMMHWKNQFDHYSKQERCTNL
Protocol: (§1) A fluorescent pH indicator, fluorescein, was added to the reaction mixture to measure the change in acidity resulting from the hydrolysis reaction in a 96-well microtiter plate format. The fluorescence response was monitored over time to give a temporal pH-induced fluorescence pattern. […] Esterases have been used to test ester chirality (Janes et al., Chem. Eur. J, 1998, 4, 2324) and as synthetic tools for efficiently hydrolyzing a variety of esters (Ohno et al., Org. React, 1989, 37, 1). General Procedure for Enzyme-Based Sensor Array:
(§2) First, solutions of desired substrates (certain exemplary substrates are depicted in FIGS. 4 and 5) were made from 100 mM of substrate in CH3CN (or buffer, depending on the solubility of the ester). The analyte concentration was chosen to be at most one-fifth of the Michaelis constant (kM) for the esterases. All solvents and substrates were purchased from Aldrich, Sigma, and Fluka Chemical Companies and used as received.
(§3) The microtiter plate assay provides a rapid and reproducible system to measure the hydrolysis reactions. In the present example, the microtiter plate assay contained the nine esterases in different columns and the ester analytes in the different rows. Each esterase catalyzed hydrolysis reaction was addressed individually to monitor the kinetics by scanning each well independently. After preparation of the desired solutions, to the microtiter plate was first pipetted (using a pipetman) 100 μL of the substrate solution into each well. […] The plate was allowed to shake for 10 seconds before the first reading. The reader reads 15 second intervals while shaking before each read. The plate was monitored for 90 seconds by a Molecular Devices, Spectra Max Gemini, fluorescence microtiter plate reader. The reader scans each row and column of the microtiter plate reading each well individually. Therefore, each enzyme was monitored individually and the enzyme's kinetics were measured at the same point in time. […] The MATLAB program analyzes the individual interactions and separates them into clusters, which can indicate the ability of the sensor to distinguish the analytes.

[2] = test system: Esterase from Bacillus sp. (denoted bacteria-1); assay: Esterase hydrolysis microtiter plate assay with fluorescein pH indicator, bacteria esterase 1; details: for Km / Vmax: Lineweaver-Burk plot, various ester concentrations, bacteria esterase 1
Protocol: as §1, §2
as §3, with “In” for “The microtiter plate assay provides a rapid and reproducible system to measure the hydrolysis reactions. In”
For mixture analysis, concentration runs of four esters, PA, ethyl valerate (EV), methyl nicotinate (MNI) and methyl 6-methyl nicotinate (MMNI) were performed with the nine esterases. The rates of the esterase reaction were plotted on a Lineweaver-Burk plot to determine the Km and Vmax and were used to identify subsequent mixtures of the four esters.

[3] = test system: Esterase from Bacillus thermoglucosidasius (denoted bacteria-2); assay: Esterase hydrolysis microtiter plate assay with fluorescein pH indicator, bacteria 2 esterase
Protocol: as §1
(§4) First, solutions of desired substrates (certain exemplary substrates are depicted in FIGS. 4 and 5) were made from 100 mM of substrate in CH3CN (or buffer, depending on the solubility of the ester). […]
(§5) The microtiter plate assay provides a rapid and reproducible system to measure the hydrolysis reactions. […] The plate was allowed to shake for 10 seconds before the first reading. The reader reads 15 second intervals while shaking before each read. The plate was monitored for 90 seconds by a Molecular Devices, Spectra Max Gemini, fluorescence microtiter plate reader. The reader scans each row and column of the microtiter plate reading each well individually. Therefore, each enzyme was monitored individually and the enzyme's kinetics were measured at the same point in time. […]

nine esterases = assay: Esterase hydrolysis microtiter plate assay, nine-esterase array
Protocol: as §1, §4, §5

Structure (SMILES): CCCC(=O)OCC [BA, Ethyl butyrate]
- hydrolysis reaction slope after three months [1]: −3.2×10^2 fluorescence units/time
- initial slope range and standard deviation of hydrolysis reaction [1]: (−2.9±1.6)×10^3 fluorescence units/time

Structure (SMILES): COC(=O)[C@@H](C)N [DM, D-alanine methyl ester]
- hydrolysis by acetylcholine esterase [1]: hydrolyzed
- hydrolysis by bacteria 1 esterase [2]: hydrolyzed
- hydrolysis by bacteria 2 esterase [3]: not DM

Structure (SMILES): COC(=O)[C@H](C)N [LM, L-alanine methyl ester]
- hydrolysis by acetylcholine esterase [1]: hydrolyzed
- hydrolysis by bacteria 1 esterase [2]: hydrolyzed
- hydrolysis by bacteria 2 esterase [3]: hydrolyzes only LM

Structure (SMILES): CCCC(=O)OC [MB, methyl butyrate]
- hydrolysis reaction slope after three months [1]: −1.3×10^2 fluorescence units/time
- initial slope range and standard deviation of hydrolysis reaction [1]: (−1.3±0.01)×10^2 fluorescence units/time

Structure (SMILES): CC(=O)Oc1ccccc1 [PA, Phenyl acetate]
- hydrolysis reaction slope after three months [1]: −1.5×10^3 fluorescence units/time
- initial slope range and standard deviation of hydrolysis reaction [1]: (−1.4±0.2)×10^2 fluorescence units/time
- relative rate of hydrolysis among all of the esters (nine esterases): hydrolyzed the fastest

Structure (SMILES): CCCCC(=O)OCC [ethyl valerate, Ethyl valerate]
- Km [2]: 1 mM
- Vmax [2]: 2e-07 M/s

Structure (SMILES): COC(=O)c1ccc(C)nc1 [methyl 6-methyl nicotinate, Methyl 6-methyl nicotinate]
- Km [2]: 2.6 mM
- Vmax [2]: 4e-07 M/s
